One block for each compound: values may come before it.
Assays:
Assay type in all cases: physicochemical
[1] = Dynamic vapor sorption (DVS Intrinsic, Method D, not dried); parameters: Hysteresis: unit not given here
Procedure: The samples were not dried prior to analysis. Sorption and desorption data were collected from 5% to 95% RH in 10% RH increments under a nitrogen purge. The equilibrium criteria used for the analyses were 0.001 dm/dt weight change in 5 minutes with a minimum step time of 30 minutes and maximum equilibration time of 180 minutes with a 3 minute data logging interval. Data were not corrected for the initial moisture content of the sample.

[2] = Relative humidity testing (physical stability, XRPD)
Text: Ruxolitinib di-hydrate was held at select relative humidities to help determine range of physical stability (see table below). The d-hydrate was transferred to a vial, which was then uncapped and placed inside a jar, for a designated time period, containing a saturated aqueous salt solution: […]

[3] = Dehydration of ruxolitinib di-hydrate (resulting solid form)
Text: Dehydration of ruxolitinib di-hydrate results in the isolation of anhydrous crystalline ruxolitinib free base (Form I) (see table below). Form I is described in more detail in Example 15.

[4] = Water activity slurry experiments (XRPD of solid phase); settings: 20 d
Procedure: Limited water activity slurries were conducted utilizing ruxolitinib di-hydrate (see table below). The effect of water activity (aw) on the hydration state of the di-hydrate was investigated through competitive water activity trituration experiments (slurries) in various aqueous solvent mixtures. The resulting solid phase was characterized by XRPD. […] Water activity is also related to relative humidity in that RH %=aw×100. Therefore, it is possible to directly relate the stability of an anhydrous/hydrate system in slurry experiments to solid-state stability. […] The method is particularly valuable when relatively slow kinetics of conversion in the solid state prevents reaching true equilibrium in a reasonable timeframe, since solvent-mediated transformation accelerates the conversion process.

[5] = Solubility of crystalline ruxolitinib di-hydrate in organic solvents; settings: for solubility: organic solvent or mixture, thermodynamic from solid
Text: The resulting ruxolitinib free base readily dissolved in the organic solvents.

[6] = Dynamic vapor sorption (VTI-SA+, sample pre-dried at 60° C.)
Procedure: The DVS experiment was performed on a VTI-SA+ Vapor Sorption Analyzer from TA Instruments. […] Then the humidity was cycled from 5% RH to 95% RH (adsorption) and back to 5% RH (desorption) with 5% RH interval at a constant temperature of 25° C. The equilibration criteria were 0.010 wt % in 5 minutes with a maximum equilibration time of 180 minutes per step.

[7] = Aqueous solubility of crystalline ruxolitinib di-hydrate; settings: 20 °C, thermodynamic from solid, 20-25° C.
[8] = Target RH 95.0%, sample RH 95.8%
[9] = Target RH 95.0%, sample RH 94.0%

Hygroscopicity ([1]; DVS Method D): hygroscopic
Desorp Mass Change ([1]; Target RH 5.0%, sample RH 5.1%): 5.04%
Sorp Mass Change ([1]; Target RH 5.0%, sample RH 5.4%): 0.00%
Hysteresis ([1]; Target RH 15.0%): 9.78
Sorp Mass Change ([1]; Target RH 15.0%, sample RH 15.6%): 0.06%
Desorp Mass Change ([1]; Target RH 15.0%, sample RH 16.1%): 9.84%
Hysteresis ([1]; Target RH 25.0%): 9.94
Sorp Mass Change ([1]; Target RH 25.0%, sample RH 25.4%): 0.11%
Desorp Mass Change ([1]; Target RH 25.0%, sample RH 25.9%): 10.05%
Hysteresis ([1]; Target RH 35.0%): 10.06
Sorp Mass Change ([1]; Target RH 35.0%, sample RH 35.4%): 0.15%
Desorp Mass Change ([1]; Target RH 35.0%, sample RH 36.0%): 10.21%
Hysteresis ([1]; Target RH 45.0%): 10.16
Sorp Mass Change ([1]; Target RH 45.0%, sample RH 45.5%): 0.19%
Desorp Mass Change ([1]; Target RH 45.0%, sample RH 46.1%): 10.35%
Hysteresis ([1]; Target RH 55.0%): 10.21
Sorp Mass Change ([1]; Target RH 55.0%, sample RH 55.3%): 0.26%
Desorp Mass Change ([1]; Target RH 55.0%, sample RH 56.1%): 10.47%
Hysteresis ([1]; Target RH 65.0%): 4.28
Sorp Mass Change ([1]; Target RH 65.0%, sample RH 65.5%): 6.30%
Desorp Mass Change ([1]; Target RH 65.0%, sample RH 66.2%): 10.58%
Hysteresis ([1]; Target RH 75.0%): 3.65
Sorp Mass Change ([1]; Target RH 75.0%, sample RH 75.3%): 7.04%
Desorp Mass Change ([1]; Target RH 75.0%, sample RH 76.3%): 10.68%
Hysteresis ([1]; Target RH 85.0%): 0.79
Sorp Mass Change ([1]; Target RH 85.0%, sample RH 86.1%): 10.00%
Desorp Mass Change ([1]; Target RH 85.0%, sample RH 89.4%): 10.79%
Desorp Mass Change [1, 8]: 10.83%
Sorp Mass Change [1, 8]: 10.83%
Additional weight loss ([1]; desorption from 15 to 5% RH): 4.8%
Weight loss ([1]; desorption from 95 to 15% RH): 1%
Weight gain ([1]; from 5 to 55% RH): 0.26%
Weight gain ([1]; from 55 to 95% RH): 10.6%
Solid form of post DVS sample ([1]; less crystalline than the starting material): Form I
SMILES: N#CC[C@H](C1CCCC1)n1cc(-c2ncnc3[nH]ccc23)cn1 [Form I, (R)-3-(4-(7H-pyrrolo[2,3-d]pyrimidin-4-yl)-1H-pyrazol-1-yl)-3-cyclopentylpropanenitrile]

Result (solid form) ([2]; 0% RH, N2, RT, 1 d): Di-hydrate + Form I
Result (solid form) ([2]; 11% RH, RT, 2 d): Di-hydrate
Result (solid form) ([2]; 11% RH, RT, 14 d): Di-hydrate
Result (solid form) ([2]; 33% RH, RT, 2 d): Di-hydrate
Result (solid form) ([2]; 53% RH, RT, 2 d): Di-hydrate
Result (solid form) ([2]; 98% RH, RT, 2 d): Di-hydrate
Result (solid form) ([2]; 98% RH, RT, 4 d): Di-hydrate
Relative humidity at which the di-hydrate form is physically stable ([2]; during the time tested): above 11 % RH
Relative humidity of conversion to anhydrous crystalline free base form (Form I) ([2]; undetermined value, during the time tested): below 11 % RH
Result (solid form) ([3]; 42° C. oven, 1 d): Di-
Result (solid form) ([3]; 50° C., vacuum oven, 1 d): Form I
Result (solid form) ([3]; 80° C./30 minutes): amorphous
Result (solid form) ([3]; 110° C./20 minutes): amorphous
Result (solid form) ([3]; P2O5 jar, RT, 4 d): Form I
Result (solid form) ([3]; P2O5 jar, RT, 5 d): Form I
Result (solid form) ([3]; P2O5 jar, RT, 13 d): conversion
Result (solid form) ([3]; P2O5 jar, RT, 21 d, di-hydrate crystals): Form I
Result (solid form) ([3]; RT, vacuum oven, 1 d): Form I
Result (solid form) ([4]; 0.34 aw, 75:25 DMSO/H2O): Di-hydrate
Result (solid form) ([4]; 0.42 aw, 70:30 DMSO/H2O): Di-hydrate
Result (solid form) ([4]; 0.68 aw, 50:50 DMSO/H2O): Di-hydrate
solubility ([5]; acetone): > 500000 µg/mL
solubility ([5]; ethyl acetate): > 200000 µg/mL
solubility ([5]; Ethanol (EtOH)): > 500000 µg/mL
solubility ([5]; Isopropanol (IPA)): > 500000 µg/mL
solubility ([5]; Methanol (MeOH)): > 500000 µg/mL
Behaviour of the hydrate in polar solvents ([5]; polar organic solvents): lost crystalline water
Solid form after DVS (XRPD) ([6]; after cycle 5% RH to 95% RH and back to 5% RH, 25° C.): crystalline ruxolitinib di-hydrate
Water re-adsorbed ([6]; at 95% RH, 25° C., after pre-drying at 60° C.): 9.6%
Sorp Mass Change ([1]; Target RH 5.0%, sample RH 4.8%): 0.0013%
Desorp Mass Change ([1]; Target RH 5.0%, sample RH 5.6%): 0.0334%
Hysteresis ([1]; Target RH 15.0%): 0.0528
Sorp Mass Change ([1]; Target RH 15.0%, sample RH 15.1%): 0.0412%
Desorp Mass Change ([1]; Target RH 15.0%, sample RH 17.1%): 0.0940%
Hysteresis ([1]; Target RH 25.0%): 0.0461
Sorp Mass Change ([1]; Target RH 25.0%, sample RH 25.0%): 0.0707%
Desorp Mass Change ([1]; Target RH 25.0%, sample RH 25.8%): 0.1168%
Hysteresis ([1]; Target RH 35.0%): 0.0399
Sorp Mass Change ([1]; Target RH 35.0%, sample RH 35.0%): 0.0904%
Desorp Mass Change ([1]; Target RH 35.0%, sample RH 35.9%): 0.1302%
Hysteresis ([1]; Target RH 45.0%): 0.0378
Sorp Mass Change ([1]; Target RH 45.0%, sample RH 45.1%): 0.1069%
Desorp Mass Change ([1]; Target RH 45.0%, sample RH 46.0%): 0.1447%
Hysteresis ([1]; Target RH 55.0%): 0.0357
Sorp Mass Change ([1]; Target RH 55.0%, sample RH 55.1%): 0.1214%
Desorp Mass Change ([1]; Target RH 55.0%, sample RH 56.0%): 0.1572%
Hysteresis ([1]; Target RH 65.0%): 0.0347
Sorp Mass Change ([1]; Target RH 65.0%, sample RH 65.1%): 0.1359%
Desorp Mass Change ([1]; Target RH 65.0%, sample RH 66.0%): 0.1706%
Hysteresis ([1]; Target RH 75.0%): 0.0311
Sorp Mass Change ([1]; Target RH 75.0%, sample RH 74.9%): 0.1561%
Desorp Mass Change ([1]; Target RH 75.0%, sample RH 76.6%): 0.1872%
Hysteresis ([1]; Target RH 85.0%): 0.0233
Sorp Mass Change ([1]; Target RH 85.0%, sample RH 84.8%): 0.1882%
Desorp Mass Change ([1]; Target RH 85.0%, sample RH 87.6%): 0.2115%
Desorp Mass Change [1, 9]: 0.2343%
Sorp Mass Change [1, 9]: 0.2343%
Weight lost upon desorption ([1]; desorption 95 to 5% RH): 0.20%
Weight gained ([1]; from 5 to 95% relative humidity): 0.23%
solubility ([7]; aqueous buffer, pH 6.0 (PBS)): 17.4 µg/mL
solubility ([7]; aqueous buffer, pH 6.5 (PBS)): 106 µg/mL
solubility ([7]; aqueous buffer, pH 7.0 (PBS)): 101 µg/mL
solubility ([7]; aqueous buffer, pH 7.4 (PBS)): 100 µg/mL
solubility ([7]; fassif, FeSSIF (pH 6.5)): 112 µg/mL
solubility ([7]; saline or isotonic, Saline (pH 5.5)): 105 µg/mL
solubility ([7]; simulated gastric fluid, 0.1N HCl): > 10700 µg/mL
solubility ([7]; simulated gastric fluid, SGF (pH 1.6)): > 11000 µg/mL
solubility ([7]; FeSSIF (pH 5.0)): 419 µg/mL
solubility ([7]; Water): 111 µg/mL
solubility ([7]; HCl solution, simulated gastric fluid, pH 2.0 (HCl)): 3470 µg/mL
solubility ([7]; KHP buffer, aqueous buffer, pH 3.0 (KHP)): 1570 µg/mL
solubility ([7]; KHP buffer, aqueous buffer, pH 5.5 (KHP)): 107 µg/mL
solubility ([7]; KPH buffer (so in the source), aqueous buffer, pH 4.0 (KPH)): 362 µg/mL
solubility ([7]; acetate buffer, aqueous buffer, pH 5.5 (Acetate)): 93.5 µg/mL
solubility ([7]; aqueous KHP solution, aqueous buffer, pH 5.0 (KHP)): 147 µg/mL
solubility ([7]; aqueous acetate solution, aqueous buffer, pH 4.0 (Acetate)): 186 µg/mL
solubility ([7]; aqueous acetate solution, aqueous buffer, pH 5.0 (Acetate)): 296 µg/mL
solubility ([7]; borate buffer, aqueous buffer, pH 8.5 (Borate)): 112 µg/mL
SMILES: N#CC[C@H](C1CCCC1)n1cc(-c2ncnc3[nH]ccc23)cn1 [Ruxolitinib Di-hydrate, (R)-3-(4-(7H-pyrrolo[2,3-d]pyrimidin-4-yl)-1H-pyrazol-1-yl)-3-cyclopentylpropanenitrile di-hydrate]
Solid form after pre-dried step ([6]; 60° C. under dry N2 (0% RH) for 1 h): dehydrated to form amorphous ruxolitinib free base

From patent publication US20250270221A1, “SOLID FORMS OF JAK INHIBITOR AND PROCESS OF PREPARING THE SAME” (Incyte Corporation, priority 2022, published 2025)
